# The NIST ThermoML archive (doi:10.1016/j.fluid.2015.04.031)
# Numbers after ± are expanded uncertainties.
# Settings: Liquid; for mass density: 101.33 kPa, Vibrating tube method; for vapor or sublimation pressure: Closed cell (Static) method
mass density (298.15 K),SMILES,vapor or sublimation pressure (293.15 K),vapor or sublimation pressure (298.15 K),vapor or sublimation pressure (303.15 K),vapor or sublimation pressure (308.15 K),vapor or sublimation pressure (313.15 K)
1006.75 ± 1.1 kg/m3,CCCC[N+]1(C)CCCC1.N#CC(=C=[N-])C#N [1-butyl-1-methylpyrrolidinium tricyanomethanide],–,–,–,–,–
1036.62 ± 1.2 kg/m3,CCCC[n+]1ccc(C)cc1.N#CC(=C=[N-])C#N [1-butyl-4-methylpyridinium tricyanomethanide],–,–,–,–,–
1058.56 ± 0.12 kg/m3,c1ccsc1 [thiophene],8.19 ± 0.13 kPa,10.4 ± 0.14 kPa,12.97 ± 0.15 kPa,16.1 ± 0.17 kPa,19.4 ± 0.17 kPa

SMILES,mass density (298.15 K),vapor or sublimation pressure (293.15 K),vapor or sublimation pressure (298.15 K),vapor or sublimation pressure (303.15 K),vapor or sublimation pressure (308.15 K),vapor or sublimation pressure (313.15 K)
c1ccncc1 [pyridine],982.85 ± 0.11 kg/m3,2.1 ± 0.1 kPa,2.77 ± 0.11 kPa,3.62 ± 0.11 kPa,4.68 ± 0.11 kPa,6 ± 0.11 kPa
